Measurements as given in PMC6482291, “Anticonvulsant Activity of Pterostilbene in Zebrafish and Mouse Acute Seizure Tests” (Neurochemical Research, 2019).

Tests used:
Format in all cases: in vivo
[1] = test system: PTZ-induced seizures in mice; test: Timed iv PTZ seizure threshold test in mice; settings: for threshold for the first myoclonic twitch vs negative control: p < 0.001
Experimental: Each mice was placed in the cylindrical restrainer and the needle (27G, 3/4 in., Sterican®, B. Braun Melsungen AG, Melsungen, Germany) was injected into the lateral tail vein. The needle was attached by the polyethylene drain (PE20RW, Plastic One Inc. Roanoke, VA, USA) with the syringe containing 1% solution of PTZ (Sigma–Aldrich, St. Louis, MO, USA) in water and the syringe was located in the infuse pomp (model Physio 22, Hugo Sachs Elektronik–Harvard Apparatus GmbH, March-Hugstetten, Germany). The correct placement of the needle in the vein was confirmed based on the presence of the blood in the drain and the needle was protected against displacement by a peace of adhesive tape. Following injection, mice were took out from the restrainer and placed in the Plexiglas box for observation. The PTZ solution was infused into the vein at a constant rate of 0.2 ml/min. The time intervals from the start of infusion of PTZ solution to the beginning of three kinds of seizures, i.e., the first myoclonic twitch, generalized clonus with loss of the righting reflex and forelimb tonic extension, were noted. Infusion of PTZ solution was stopped immediately after onset of the tonic seizures, which usually were lethal. If animal survived the test, it was euthanized immediately. The threshold dose of PTZ (in mg/kg body weight) for each kind of seizures was calculated according to the following formula: PTZmg/kg=infusion durations×infusion rateml/s×PTZ concentrationmg/ml/weightkg
Experimental groups consisted of 9–13 animals. The data obtained in the iv PTZ test are presented as the threshold dose of PTZ (in mg/kg) + standard error of the mean (SEM) needed to elicit the respective kind of seizures. The data were analyzed by one-way ANOVA followed by the Tukey’s multiple comparison test. Statistical significance was noted when p values were equal or lower than 0.05.

[2] = test system: 6 Hz-induced psychomotor seizures in mice; test: 6 Hz psychomotor seizure test with supramaximal stimulation (32 and 44 mA); settings: Mus musculus, ip, 30 min before test
From the text: Psychomotor (limbic) seizures were induced by transcorneal stimulation (6 Hz, 0.2 ms rectangular pulse, 3 s duration) generated by a Grass S48 stimulator coupled with a constant current unit CCU1 (both from Grass Technologies, West Warwick, RI, USA). Before stimulation a drop of ocular anesthetic, 1% tetracaine hydrochloride solution, was applied into the animals’ corneas. The electrodes were soaked in saline to ensure the good electrical contact. During the stimulation animals were restrained manually and immediately after the stimulation were placed in a Plexiglas box for observation of presence or absence of the psychomotor seizures. These seizures were characterized by immobilization or stun, often associated with rearing, forelimb clonus, twitching of vibrissae and elevated tail (Straub-tail), lasting at least 10 s from the stimulation. Lack of the above symptoms or their cessation within 10 s from the stimulation was considered as absence of seizure activity.
In the present study two 6 Hz-induced psychomotor seizure tests were performed: (1) the 6 Hz psychomotor seizure threshold test which employed stimulation at varied current intensities, and (2) the 6 Hz psychomotor seizure test with supramaximal stimulation at 32 mA and 44 mA. […]

[3] = test system: maximal electroshock seizures; test: MES test (supramaximal stimulation); settings: ED50 could not be determined

With `COc1cc(/C=C/c2ccc(O)cc2)cc(OC)c1` [PTE, trans-3,5-dimethoxy-4′-hydroxy-trans-stilbene] the “threshold for the first myoclonic twitch vs negative control” value ([1]; PTE 100 mg/kg ip, 30 min before test) was “Statistically significant increases”, the “threshold for the first myoclonic twitch vs negative control” value ([1]; PTE 200 mg/kg ip, 30 min before test) was “Statistically significant increases” and the “increase of threshold for generalized clonic seizures vs negative control” value ([1]; PTE 200 mg/kg ip, 30 min before test, p < 0.01) was “over 45%”. For the same compound, the “threshold for tonic forelimb extension vs negative control” value ([1]; PTE 50 to 200 mg/kg ip, 30 min before test) was “did not significantly affect”, the “time of highest anticonvulsant activity after ip administration (time-course effect)” value ([1]; iv PTZ test, data not shown) was 30 min and the ED50 ([2]; current intensity 32 mA) was 506 ± 44.7 mg/kg. For the same compound, the ED50 ([2]; current intensity 44 mA) was 541 ± 41.5 mg/kg and the “anticonvulsant activity in the MES test” value [3] was “lack of significant anticonvulsant activity”.
